From the supplement of paper PMC13380429

How the values were obtained:
Conditions in all cases: 72 h
Calu-3 [1] = assay: drug sensitivity score (DSS) for viability; higher = more toxic; extreme values may be limits of the assay
U2OS [2] = assay: as above
HepG2 [3] = assay: as above
Vero E6 [4] = assay: as above
Caco-2 [5] = assay: as above
Calu-3 [6] = assay: cell viability relative to DMSO; higher = less toxic
U2OS [7] = assay: as above
HepG2 [8] = assay: as above
Vero E6 [9] = assay: as above
Caco-2 [10] = assay: as above
Calu-3 [11] = assay: relative viability EC50 (midpoint between 100% and the lowest measured viability); higher = less toxic
U2OS [12] = assay: as above
HepG2 [13] = assay: as above
Vero E6 [14] = assay: as above
Caco-2 [15] = assay: as above

SMILES | drug sensitivity score (Calu-3 [1]) | drug sensitivity score (U2OS [2]) | drug sensitivity score (HepG2 [3]) | drug sensitivity score (Vero E6 [4]) | drug sensitivity score (Caco-2 [5]) | cell viability (Calu-3 [6]; 1 nM) | cell viability (Calu-3 [6]; 10 nM) | cell viability (Calu-3 [6]; 100 nM) | cell viability (Calu-3 [6]; 1000 nM) | cell viability (Calu-3 [6]; 10000 nM) | cell viability (U2OS [7]; 1 nM) | cell viability (U2OS [7]; 10 nM) | cell viability (U2OS [7]; 100 nM) | cell viability (U2OS [7]; 1000 nM) | cell viability (U2OS [7]; 10000 nM) | cell viability (HepG2 [8]; 1 nM) | cell viability (HepG2 [8]; 10 nM) | cell viability (HepG2 [8]; 100 nM) | cell viability (HepG2 [8]; 1000 nM) | cell viability (HepG2 [8]; 10000 nM) | cell viability (Vero E6 [9]; 1 nM) | cell viability (Vero E6 [9]; 10 nM) | cell viability (Vero E6 [9]; 100 nM) | cell viability (Vero E6 [9]; 1000 nM) | cell viability (Vero E6 [9]; 10000 nM) | cell viability (Caco-2 [10]; 1 nM) | cell viability (Caco-2 [10]; 10 nM) | cell viability (Caco-2 [10]; 100 nM) | cell viability (Caco-2 [10]; 1000 nM) | cell viability (Caco-2 [10]; 10000 nM) | relative viability EC50 (Calu-3 [11]) | relative viability EC50 (U2OS [12]) | relative viability EC50 (HepG2 [13]) | relative viability EC50 (Vero E6 [14]) | relative viability EC50 (Caco-2 [15])
Cn1cc(C[C@@H](N)C(=O)O)c2ccccc21 [indoximod] | 0 | 0 | 0 | 0 | 0.1 | 107% | 98.7% | 96.3% | 103% | 106% | 102% | 97% | 102% | 99.4% | 103% | 114% | 97.6% | 102% | 118% | 101% | 104% | 95.4% | 91.6% | 101% | 102% | 94.5% | 83.8% | 81.7% | 91.7% | 104% | > 10 µM | > 10 µM | > 10 µM | > 10 µM | > 10 µM
O=C(O)[C@@H]1C[C@@H](O)CN1 [L-hydroxyproline] | 0 | 0 | 0 | 0 | 0 | 95% | 94.4% | 93.5% | 96.9% | 106% | 95.9% | 102% | 100% | 95.2% | 102% | 101% | 112% | 99.7% | 108% | 90.8% | 104% | 114% | 99.5% | 105% | 94.4% | 80.5% | 92.4% | 100% | 96.1% | 95.8% | > 10 µM | > 10 µM | > 10 µM | > 10 µM | > 10 µM
O=C(Nc1c(-c2cccs2)nc2ccccn12)c1ccc(Cl)cc1 | 0 | 0 | 0 | 0 | 0 | 106% | 104% | 103% | 86.9% | 107% | 104% | 96.7% | 103% | 99.3% | 103% | 98.9% | 95.3% | 99% | 101% | 91.4% | 96.7% | 103% | 96.6% | 95.1% | 92.9% | 99% | 95% | 104% | 97.5% | 102% | > 10 µM | > 10 µM | > 10 µM | > 10 µM | > 10 µM
Nc1cccc(-c2cc3c(Oc4cccc(O)c4)ncnc3[nH]2)c1 [TWS-119] | 4.6 | 4.6 | 0 | 7 | 5 | 108% | 97.8% | 86.2% | 96.4% | 25.7% | 103% | 108% | 102% | 96.6% | 25.2% | 113% | 107% | 128% | 104% | 90.1% | 110% | 101% | 101% | 82.2% | 24.9% | 99.3% | 99.4% | 98.2% | 89.5% | 40.4% | 2.79 µM | 2.82 µM | > 10 µM | 1.59 µM | 1.85 µM
CC[C@H](C)[C@H](N)C1=N[C@H](C(=O)N[C@@H](CC(C)C)C(=O)N[C@H](CCC(=O)[O-])C(=O)N[C@H](C(=O)N[C@H]2CCCCNC(=O)[C@H](CC(N)=O)NC(=O)[C@@H](CC(=O)[O-])NC(=O)[C@H](Cc3cnc[nH]3)NC(=O)[C@@H](Cc3ccccc3)NC(=O)[C@H]([C@@H](C)CC)NC(=O)[C@@H](CCCN)NC2=O)[C@@H](C)CC)CS1.[Zn+2] [bacitracin-zinc] | 0 | 0 | 0 | 0 | 0 | 93.7% | 106% | 112% | 99.9% | 106% | 92.8% | 99.4% | 96.4% | 103% | 104% | 96.9% | 100% | 110% | 93.6% | 111% | 96.2% | 89.9% | 100% | 95.5% | 112% | 93.8% | 90.5% | 104% | 104% | 110% | > 10 µM | > 10 µM | > 10 µM | > 10 µM | > 10 µM
O=C(O)CC/C=C\C[C@@H]1CO[C@H](c2ccccc2Cl)O[C@@H]1c1ccccc1O (racemic) | 0 | 0 | 0 | 0 | 0 | 93.8% | 96.1% | 102% | 99% | 98.9% | 96.6% | 95% | 97.4% | 95.5% | 99.2% | 88.5% | 103% | 106% | 108% | 110% | 93.1% | 96.3% | 92.6% | 102% | 106% | 91.4% | 90.3% | 105% | 96.9% | 92.6% | > 10 µM | > 10 µM | > 10 µM | > 10 µM | > 10 µM
Cc1oc(=O)oc1CN1CCN(c2cc3c(cc2F)c(=O)c(C(=O)O)c2n3C(C)S2)CC1 (stereo not given) [prulifloxacin] | 0 | 0 | 0 | 0 | 0 | 104% | 95.8% | 99.4% | 96.2% | 97.3% | 95.8% | 99.8% | 100% | 95.7% | 100% | 107% | 112% | 110% | 106% | 97.2% | 102% | 111% | 115% | 94.5% | 97.3% | 94.8% | 91.6% | 120% | 103% | 97.8% | > 10 µM | > 10 µM | > 10 µM | > 10 µM | > 10 µM
Cc1cc2nc3c(=O)[nH]c(=O)nc-3n(C[C@H](O)[C@H](O)[C@H](O)COP(=O)(O)O)c2cc1C [riboflavin-5-phosphate-sodium] | 0 | 0 | 0 | 0 | 0 | 91.4% | 102% | 92.7% | 104% | 99.8% | 102% | 97.9% | 94.4% | 98.2% | 91.9% | 97.8% | 104% | 101% | 98% | 108% | 101% | 102% | 97.2% | 95.7% | 97.2% | 97.8% | 104% | 103% | 100% | 90.3% | > 10 µM | > 10 µM | > 10 µM | > 10 µM | > 10 µM
O=C(O)c1ccc2c(c1)C(=O)N(c1cccc(Oc3ccc([N+](=O)[O-])cc3)c1)C2=O | 0 | 0 | 0 | 0 | 0 | 94.8% | 96.5% | 104% | 96.8% | 99% | 95.5% | 99% | 94.6% | 99% | 94.3% | 104% | 94.8% | 95.5% | 92.9% | 103% | 94.1% | 99.7% | 98.7% | 90.1% | 100% | 92.5% | 102% | 98% | 94.7% | 100% | > 10 µM | > 10 µM | > 10 µM | > 10 µM | > 10 µM
CC(=O)OCC1=C(C(=O)O)N2C(=O)[C@@H](NC(=O)CCCC(N)C(=O)O)C2SC1 (stereo not given in full) [cephalosporin-c-zn] | 0 | 0 | 0 | 0 | 0 | 93.2% | 104% | 91.5% | 97.7% | 99.5% | 97.1% | 98.1% | 94.9% | 92.7% | 104% | 103% | 88.2% | 81.8% | 112% | 102% | 93.6% | 87.4% | 90.9% | 100% | 104% | 88.7% | 78% | 94.1% | 89.6% | 99.2% | > 10 µM | > 10 µM | > 10 µM | > 10 µM | > 10 µM
O=C1S/C(=C\c2ccc(OCc3cccc(B(O)O)c3)cc2)C(=O)N1Cc1ccc(F)cc1 [HA-130] | 0 | 0 | 0 | 0 | 0 | 95.2% | 110% | 99.6% | 105% | 93.7% | 95.6% | 97.5% | 94.7% | 98.7% | 90.6% | 102% | 98.7% | 94.8% | 101% | 103% | 95.5% | 97.2% | 103% | 91.9% | 93.4% | 93.4% | 96% | 97% | 97.6% | 92.8% | > 10 µM | > 10 µM | > 10 µM | > 10 µM | > 10 µM
CC(C)(C)NCc1cc(Nc2ccnc3cc(Cl)ccc23)c2c(c1O)CCCC2 [naphthoquine-phosphate] | 0 | 0 | 0 | 0 | 0.4 | 96.3% | 98% | 101% | 91% | 109% | 96.3% | 96.6% | 103% | 95.9% | 98.1% | 106% | 106% | 106% | 99.6% | 98.6% | 106% | 110% | 108% | 99.3% | 93.5% | 108% | 99.7% | 98.5% | 99.6% | 83% | > 10 µM | > 10 µM | > 10 µM | > 10 µM | > 10 µM
CN1CCC(OC(c2ccccc2)c2ccccc2)CC1 [diphenylpyraline] | 0 | 0 | 0 | 0 | 0 | 97.3% | 90% | 98.7% | 94.9% | 95.1% | 103% | 95.7% | 102% | 95.1% | 98.6% | 89.7% | 98.2% | 90.6% | 103% | 111% | 94.6% | 106% | 97.1% | 104% | 109% | 96.1% | 96.3% | 97.6% | 102% | 94.6% | > 10 µM | > 10 µM | > 10 µM | > 10 µM | > 10 µM
